{"source": "patent US20220281860A1", "about": "“COMPOUNDS AND METHODS OF TREATING RNA-MEDIATED DISEASES” (Arrakis Therapeutics, Inc., priority 2016, published 2022)", "key": {"[1]": {"system": "RNA3WJ_0.0.0_5IB_3FAM (3WJ_0.0.0_5IB_3FAM) RNA three way junction", "experiment": "Thermal shift binding assay", "details": "for Melt. Temp. with cmpd / Shift melt. Temp.: RNA sequence 3WJ_0.0.0_5IB_FAM; for Melt. Temp. with cmpd: melting temperature in presence of compound; for Shift melt. Temp.: melting temperature with cmpd minus without cmpd", "text": "(§1) Purpose: Test binding of compounds for RNA three way junction (for example, a construct of 38 nt). Thermal shift assay based on established fluorescence quenching assay utilizing FAM as fluorescence tag and Iowa Black as quencher. Tags were attached at the 3′ and 5′ end, respectively. Stable formation of 3WJ upon compound binding would lead to quenching of the FAM fluorescence due to close proximity of the Iowa Black tag. Thermal unfolding leads to increase of fluorescence emission. Assay readout: FAM (465-510 nm) Thermal Shift.\n(§2) Assay sample buffer used: 10 mM CacoK pH 7.2, 30 mM NaCl. Buffer preparation in Dnase/Rnase Free distilled water (Gibco Life Technologies).\n(§3) Tool compounds provided as dry powder are prepared as 50 mM stock solution in 100% d6-DMSO. Stock solutions of 50 mM concentration in d6-DMSO are stored at RT.\n(§4) Sample plate: Roche, Light Cycler480 Multiwell Plate96, white, REF 04729692001. (Dilution plate: Greiner REF 781101, PS-Microplate, 384 well, clear). Thermal Shift device: Roche, Light Cycler480.\n(§5) Daily fresh (10 ml): 1 ml 100 mM CacoK pH 7.2 and 0.3 ml 1 M NaCl filled up to 10 ml with Dnase/Rnase Free distilled water.\n(§6) Dilute the RNA 1:10 (final 10 μM) in Assay Buffer.\n(§7) Heat up the diluted RNA up to 90° C. for 5 min (sealed Eppendorf Tube).\n(§8) Cool down the RNA probe slowly to RT.\n(§9) Dilute the compounds to 800 μM in DMSO (Assay: 8 μM).\n(§10) 78.4 μL Assay Buffer are pipetted into Greiner REF 781101, PS-Microplate, 384 (each well needed).\n(§11) Add 0.8 μL of the RNA-Solution ([…]).\n(§12) Add 0.8 μL Compound-Solution ([…]).\n(§13) Final concentrations in the sample: 1 μM RNA, 8 μM compound, 1% DMSO\n(§14) Pipet 20 μL Sample Solution into Roche, Light Cycler480 Multiwell Plate96, white, REF 04729692001.\n(§15) When sample transfer is finished, seal the plate with a clear topseal (part of REF 04729692001).\n(§16) Centrifuge the plate with a table-top device to spin down the samples.\n(§17) Measure the 96 plate with the LightCycler480 (Channel: 480/510 nm; Temperature: 41-91° C.).\n(§18) Analyse measurement-data with the MeltingCurveGenotyping Mode.\n(§19) Settings: Acquisition mode: continuous; Ramp rate: 0.1 C.°/sec; Acquisition: 6/C.° Melt Curve Genotyping for All Samples\n(§20) Melting curves analysis show melting temperature (Tm) of ˜51° C. Range of RNA concentrations was tested and assay window was determined (conc. range of 0.5-1 μM yields best results). The choice of buffer also affected the Tm. RNA constructs were tested under different buffer conditions (especially in presence of salt) in the thermal shift assay. […] CacoK with 30 mM salt at 1 μM RNA conc. was used to assess compound effects on 3WJ stability. […] These conditions were used for screening test compounds."}, "[2]": {"system": "3WJ_0.0.0_5IB_3FAM construct", "experiment": "Fluorescence quenching binding assay", "details": "at conc. >5 μM, FIG. 107", "method": "This assay will be used to test binding of compounds for RNA three way junction (such as a 38 nt construct). This is a fluorescence quenching assay utilizing FAM as fluorescence tag and Iowa Black as quencher. Tags are attached at the 3′ and 5′ end, respectively. Stable formation of MW upon compound binding would lead to quenching of the FAM fluorescence due to close proximity of the Iowa Black tag. Assay readout: FAM (485-520 nm) Fluorescence Intensity.\nas §2, §3\nSample plate: Greiner cat #784076, black, 384 (Dilution plate: Greiner REF 781101, PS-Microplate, 384 well, clear). Fluorescence Intensity device: Envision 1040285\nDaily fresh (10 ml): 1 ml 100 mM CacoK pH 7.2 and 0.3 ml 1 M NaCl filled up to 10 ml with Dnase/Rnase Free distilled water\nas §6\nHeat up the diluted RNA up to 90° C. for 5 min (sealed Eppendorf Tube). […]\nCalibration of the expected fluorescence signal at various RNA concentrations in either CacoK or NaPO4 buffers was performed first. Experiments in buffers containing salt show distinct fluorescence quenching behavior. […]"}, "[3]": {"system": "RNA3WJ_1.0.0_5IB_3FAM (cis 3WJ with one unpaired nucleotide)", "experiment": "Thermal shift binding assay", "details": "RNA3WJ_1.0.0_5IB 3FAM; RNA:ligand ratios 1:1, 1:3", "text": "as §1, §2, §3, §4, §5, §6, §7, §8, §9, §10, §11, §12, §13, §14, §15, §16, §17, §18, §19, §20\nCompounds Ark0000013 and Ark0000014 were also tested in the thermal shift assay against three RNA 3WJ constructs, A) RNA3WJ_1.0.0_5IB_3FAM (cis 3WJ with one unpaired nucleotide); B) Split3WJ.1_up_5IB+Split3WJ.1_down_3FAM (trans 3WJ as 1:1 mix); and C) Split3WJ.2_up_5IB+Split3WJ.2_down_3FAM (trans 3WJ as 1:1 mix)."}, "RNA3WJ_3.0.0_5IB_3FAM": {"system": "RNA3WJ_3.0.0_5IB_3FAM", "experiment": "Thermal shift binding assay", "details": "RNA:ligand ratios 1:1, 1:3", "text": "as §1, §2, §3, §4, §5, §6, §7, §8, §9, §10, §11\nAdd 0.8 μL Compound-Solution ([…]). […]\nas §14, §15, §16, §17, §18, §19, §20"}, "[4]": {"system": "RNA3WJ_0.0.0_5IB_3FAM (3WJ_0.0.0_5IB_3FAM) RNA three way junction", "experiment": "Thermal shift binding assay", "details": "RNA:ligand ratios 1:1, 1:3, raw and normalized data"}, "[5]": {"details": "RNA3WJ_0.0.0_5IB_3FAM, 1 μM RNA, 8 μM compound, 1% DMSO, 10 mM CacoK pH 7.2, 30 mM NaCl"}}, "note": "Counter-ions that a name gives are not always drawn."}
{"molecule": "4-((2S,4S)-4-azido-2-(methyl(12-methyl-13-oxo-15-(2,7,15-tris(8-aminooctanamido)-9,10-[1,2]benzenoanthracen-9(10H)-yl)-3,6,9-trioxa-12-azapentadecyl)carbamoyl)pyrrolidine-1-carbonyl)benzenesulfonyl fluoride [ARK000032]", "values": [{"measurement": "Temp. Shift [° C.]", "setting": "[1]; [5]", "result": "+15.0 °C"}, {"measurement": "Melt. Temp. with cmpd", "setting": "[1]", "result": 75.1, "unit": "°C"}, {"measurement": "Shift melt. Temp.", "setting": "[1]", "result": "+15.0 °C"}]}
{"molecule": "CC(C)(C)OC(=O)NCCCC[C@@H](NC(=O)OC(C)(C)C)C(=O)Nc1ccc2c(c1)C1(CCC(=O)NCCOCCOCCN)c3cc(NC(=O)[C@@H](CCCCNC(=O)OC(C)(C)C)NC(=O)OC(C)(C)C)ccc3C2c2ccc(NC(=O)[C@@H](CCCCNC(=O)OC(C)(C)C)NC(=O)OC(C)(C)C)cc21", "note": "[ARK000023]", "values": [{"measurement": "Melt. Temp. with cmpd", "setting": "[1]", "result": 60.7, "unit": "°C"}, {"measurement": "Shift melt. Temp.", "setting": "[1]", "result": "+0.6 °C"}]}
{"molecule": "CN(CCOCCOCCN(C)C(=O)[C@@H]1C[C@H](N=[N+]=[N-])CN1C(=O)CCc1ccc(S(=O)(=O)F)cc1)C(=O)CCC12c3cc(NC(=O)CCCCCCCN)ccc3C(c3ccc(NC(=O)CCCCCCCN)cc31)c1ccc(NC(=O)CCCCCCCN)cc12", "note": "[ARK000028]", "values": [{"measurement": "Melt. Temp. with cmpd", "setting": "[1]", "result": 82.3, "unit": "°C"}, {"measurement": "Shift melt. Temp.", "setting": "[1]", "result": "+22.0 °C"}]}
{"molecule": "[N-]=[N+]=NC[C@H]1O[C@H](O[C@@H]2[C@@H](O)[C@H](O[C@H]3O[C@H](CN)[C@@H](O)[C@H](O)[C@H]3O)[C@@H](N)C[C@H]2N)[C@H](O)[C@@H](N)[C@@H]1O", "note": "[Ark000007, 6″-Azido-kanamycin A hydrochloride salt]", "values": [{"measurement": "Melting temp [° C.] + cmpd", "setting": "[1]; [5]", "result": 65.6, "unit": "°C"}, {"measurement": "Temp. Shift [° C.]", "setting": "[1]; [5]", "result": "~5", "unit": "°C"}, {"measurement": "Concentration dependent influence on the fluorescence signal (quenching effect)", "setting": "[2]", "result": "increase of quenching effect"}]}
{"molecule": "C#CCCCC(=O)NC[C@H]1O[C@H](O[C@H]2[C@H](O)[C@@H](O[C@H]3O[C@H](CO)[C@@H](O)[C@H](N)[C@H]3O)[C@H](N)C[C@@H]2N)[C@H](O)[C@@H](O)[C@@H]1O", "note": "[Ark000008]", "values": [{"measurement": "Effect on melting temperature (in words)", "setting": "[1]; 3WJ_0.0.0_5IB_3FAM RNA construct, FIG. 110", "result": "very small effect"}]}
{"molecule": "CN(CCCN)CCCNC(=O)c1ccccc1", "note": "[Ark000039]", "values": [{"measurement": "Effect in the melting curves (in words)", "setting": "[3]", "result": "lack of effect"}, {"measurement": "Effect in the melting curves (in words)", "setting": "RNA3WJ_3.0.0_5IB_3FAM", "result": "lack of effect"}, {"measurement": "Effect in the melting curves (in words)", "setting": "[4]", "result": "no significant effect"}]}
{"molecule": "N,N′,N″-(9-(1-((2S,4S)-4-azido-1-(3-(4-(fluorosulfonyl)benzoyl)pyrrolidin-2-yl)-2,11-dimethyl-1,12-dioxo-5,8-dioxa-2,11-diazatetradecan-14-yl)-9,10-dihydro-9,10-[1,2]benzenoanthracene-2,7,15-triyl)tris(azanediyl))tris(8-aminooctanamide) [ARK000031]", "values": [{"measurement": "Temp. Shift [° C.]", "setting": "[1]; [5]", "result": "+24.1 °C"}, {"measurement": "Melt. Temp. with cmpd", "setting": "[1]", "result": 84.1, "unit": "°C"}, {"measurement": "Shift melt. Temp.", "setting": "[1]", "result": "+24.1 °C"}]}
